Laboratory results reported in patent publication US10183015B2, “Heterocyclic compounds and methods of use” (Medivation Technologies LLC, priority 2015, dated 2019).
“And” between values parts separate entries of the source, which are not always exact repeats. Equal entries are not always repeated.

Columns and labels:
Type in all cases: in vivo
[1] = tested on: 60% high fat Paigen diet induced NASH mouse model; assay: Short-term Paigen-diet NASH mouse model: liver Oil Red O staining; settings: 40 mg/kg p.o. (stopped after 4 administrations), 9 days of diet
[2] = Short-term Paigen-diet NASH mouse model: Compound #37 plasma concentration 1 hour after final dose; settings: for concentration at 1 h: male, C57Bl/6J, mouse, plasma, oral
From the text: After 21 days of treatment, mice were 4-hour fasted (9 am to 1 pm). One hour after the last dosing (noon), blood was collected by retro-orbital bleeding (maximal volume on EDTA) under isoflurane anesthesia to measure plasma triglycerides, total cholesterol, non-esterified fatty acid, ALT and AST. Mice were then sacrificed by cervical dislocation, and livers were harvested and weighed. Liver samples from the same lobe were dissected, frozen, and analyzed as described below.
The Paigen diet in the C57Bl/6J mouse strain typically results in an initial acute weight loss that recovers over time (Hebbard & George, 2011; vendor historical unpublished data). […] Dosing of this group was stopped on day 4 and the surviving mice were sacrificed on day 9, 1 hour after a final dose to analyze drug exposure. […] No mice died in the Compound #37 5 mg/kg/day or vehicle control groups (10 mice each group).
The death of animals in the Compound #37 40 mg/kg/day and 20 mg/kg/day groups appears to be related to synergistic weight loss due to a combination of the Paigen diet and the inappetence effects of Compound #37 observed in repeat-dose toxicity studies in rats and dogs. […] Compound #37 mean plasma concentration 1 hour after final dose administration on day 21 was 20.4 μM (±4.33 μM) and 112 μM (±26.0 μM) for the 5 mg/kg and 20 mg/kg groups, respectively. The Compound #37 mean plasma concentration 1 hour after final dose administration for the 4 animals on day 9 in the 40 mg/kg group was 136 μM (±37.1 μM). These exposures at 1 hour after dosing are approximately 2-fold higher than those observed in healthy mice and may be related to altered Compound #37 metabolism in this acute liver injury model.

[3] = tested on: NRF2; assay: Short-term Paigen-diet NASH mouse model: hepatic NRF2 gene expression (RT-qPCR); parameters: key to ER and oxidative stress gene expression NRF2: Dct: Ct of gene minus Ct of 18S reference; key to ER and oxidative stress gene expression NRF2: 2DDct: expression relative to vehicle group, normalized to 18S (2^-ΔΔCt); settings: 21 days
Procedure: To investigate whether Compound #37 prevents the development of pathology associated with NASH and steatosis in an acute exploratory disease model, a study was conducted using a diet-induced acute liver steatosis model in mice. As described below, in this study, C57BL/6J mice were initiated on the Paigen diet and simultaneously treated with Compound #37 (5, 20, and 40 mg/kg/day) or vehicle control (20% HPβCD 10 mL/kg/day) by oral gavage for 21 days.
After acclimation, 8-week old male C57Bl/6J mice (Charles River) weighing about 25 g were randomized in 4 groups according their body weight and treated once daily around noon by oral gavage with vehicle, or Compound #37 at various for 21 days as follows: Group 1: vehicle-20% (2-hydroxypropyl)-β-cyclodextrin (HP-β-CD) (n=10); Group 2: Compound #37, 5 mg/kg ([…]) Group 4: Compound #37, 40 mg/kg (n=10). During the treatment period, body weight and food intake (measured over 24h) were measured 3 times per week and once a week, respectively. During the acclimation, all mice were fed a standard diet (Special Diets Services RM1 (E), product no. 801492) and tap water ad libitum. After the acclimation period, mice were fed until the end of the experiment with a 60% high fat Paigen diet (60 kcal % fat, 1.25% cholesterol, and 0.5% cholate; D11061901, Research Diet) and tap water ad libitum.
Gene expression analysis. Hepatic expression levels of genes involved in lipid metabolism (FAS, SREBP1, ACC1, SCD1), cholesterol metabolism (HMG-CoAR, LDLR), SREBP proteolysis (SCAP, INSIG1), ER stress (PERK), oxidative stress (NRF2), inflammation (MCP-1), and fibrosis (collagen 1α1) were quantified by RTqPCR. Expression level was normalized to 18S gene expression and relative expression to vehicle group was calculated with the […] method.

CC(C)Cc1cc(-c2nc(-c3ccc(NS(=O)(=O)C(F)(F)F)cc3Cl)cs2)ccn1 [Compound 37, N-(3-chloro-4-(2-(2-isobutylpyridin-4-yl)thiazol-4-yl)phenyl)-1,1,1-trifluoromethanesulfonamide]
Liver O red Oil staining, % labeling ([1]; group mean): 1.87%
Liver O red Oil staining, % labeling ([1]; individual animals): 2.53% and 2.54% and 1.12% and 1.28%
exposure at 1 hour after dosing relative to healthy mice ([2]; acute liver injury model vs healthy mice): approximately 2 fold
concentration at 1 h ([2]; 5 mg/kg, day 21): 20.4 µM
concentration at 1 h ([2]; 20 mg/kg, day 21): 112 µM
concentration at 1 h ([2]; 40 mg/kg, day 9, 4 animals): 136 µM
ER and oxidative stress gene expression NRF2: 2DDct ([3]; 5 mg/kg, group mean, n 10): 0.76
ER and oxidative stress gene expression NRF2: 18S ([3]; 5 mg/kg, group mean, n 10): 12.3
ER and oxidative stress gene expression NRF2: DDct ([3]; 5 mg/kg, group mean, n 10): 0.57
ER and oxidative stress gene expression NRF2: Dct ([3]; 5 mg/kg, group mean, n 10): 11.5
ER and oxidative stress gene expression NRF2: NRF2 ([3]; 5 mg/kg, group mean, n 10): 23.8
ER and oxidative stress gene expression NRF2: 2DDct ([3]; 5 mg/kg, individual animals): 0.76 and 0.49 and 0.57 and 1.91 and 0.32 and 0.4 and 0.82 and 1.02 and 0.67 and 0.68
ER and oxidative stress gene expression NRF2: 18S ([3]; 5 mg/kg, individual animals): 13.46 and 13.11 and 11.61 and 13.35 (2×) and 12.03 and 11.6 and 11.79 and 11.14 and 11.12
ER and oxidative stress gene expression NRF2: DDct ([3]; 5 mg/kg, individual animals): 0.4 and 1.02 and 0.81 and −0.93 and 1.66 and 1.32 and 0.29 and −0.03 and 0.58 and 0.56
ER and oxidative stress gene expression NRF2: Dct ([3]; 5 mg/kg, individual animals): 11.34 and 11.96 and 11.75 and 10.01 and 12.6 and 12.26 and 11.23 and 10.91 and 11.52 and 11.5
ER and oxidative stress gene expression NRF2: NRF2 ([3]; 5 mg/kg, individual animals): 24.8 and 25.07 and 23.36 (2×) and 24.63 and 25.61 and 22.83 and 22.7 and 22.66 and 22.62
ER and oxidative stress gene expression NRF2: 2DDct ([3]; 20 mg/kg, group mean, n 6): 1.08
ER and oxidative stress gene expression NRF2: 18S ([3]; 20 mg/kg, group mean, n 6): 12.2
ER and oxidative stress gene expression NRF2: DDct ([3]; 20 mg/kg, group mean, n 6): 0.03
ER and oxidative stress gene expression NRF2: Dct ([3]; 20 mg/kg, group mean, n 6): 11
ER and oxidative stress gene expression NRF2: NRF2 ([3]; 20 mg/kg, group mean, n 6): 23.2
ER and oxidative stress gene expression NRF2: 2DDct ([3]; 20 mg/kg, individual animals): 0.76 (2×) and 0.91 and 2.23 and 0.65 and 1.13
ER and oxidative stress gene expression NRF2: 18S ([3]; 20 mg/kg, individual animals): 12.91 and 12.29 and 12.2 and 13.03 and 11.49 and 11.26
ER and oxidative stress gene expression NRF2: DDct ([3]; 20 mg/kg, individual animals): 0.39 and 0.4 and 0.13 and −1.16 and 0.62 and −0.18
ER and oxidative stress gene expression NRF2: Dct ([3]; 20 mg/kg, individual animals): 11.33 and 11.34 and 11.07 and 9.78 and 11.56 and 10.76
ER and oxidative stress gene expression NRF2: NRF2 ([3]; 20 mg/kg, individual animals): 24.24 and 23.63 and 23.27 and 22.81 and 23.05 and 22.02
